Measurements from PubChem BioAssay (NCI).
Values joined by “and” are separate entries in the source; they are usually repeats but may differ in a detail not shown here. Equal values may be shown once.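 1) Cells in 96-well plates. 2) Compound, 48 h, 5 concentrations. 3) Linear interpolation between surrounding doses. 4) Unreached endpoint = highest concentration. The concentration for 50% growth inhibition is given as GI50. Definition used: TGI = concentration required for complete inhibition of growth.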

Tests used:
Test in all cases: NCI-60 cell line screen, 48 h
[1] = test system: DU-145 prostate
[2] = test system: EKVX NSCLC
[3] = test system: KM12 colon
[4] = test system: LOX IMVI melanoma
[5] = test system: MOLT-4 leukemia
[6] = test system: NCI-H226 lung
[7] = test system: NCI-H23 lung
[8] = test system: NCI/ADR-RES ovarian
[9] = test system: SK-MEL-28 melanoma
[10] = test system: SNB-19 CNS

Structure (SMILES) | TGI [1] | TGI [2] | TGI [3] | TGI [4] | TGI [5] | TGI [6] | TGI [7] | TGI [8] | TGI [9] | TGI [10] | GI50 [1] | GI50 [2] | GI50 [3] | GI50 [4] | GI50 [5] | GI50 [6] | GI50 [7] | GI50 [8] | GI50 [9] | GI50 [10]
CN(C)CCCc1c2ccccc2nc2ccc(Cl)cc12 | 58.7 µM | 35.1 µM | 32.5 µM | 29.1 µM | 44.5 µM | 40.7 µM | 84.8 µM | 52 µM | 37.3 µM | 33.5 µM |  |  |  |  |  |  |  |  |  | 
NNS(=O)(=O)c1cc(C(=O)O)cc(C(=O)O)c1 | > 100 µM | > 100 µM | > 100 µM | > 100 µM | > 100 µM | > 100 µM | > 100 µM | > 100 µM | > 100 µM | > 100 µM |  |  |  |  |  |  |  |  |  | 
Oc1c(CN2CCCC2)cc(CSCc2ccccc2)c2cccnc12 | 10.7 µM | 11.9 µM | 11.9 µM | 2.48 µM | 2.74 µM | 4.8 µM | 5.12 µM | 0.807 µM | 13.6 µM | 13.5 µM | 1.28 µM | 1.99 µM | 0.635 µM | 0.386 µM | 0.671 µM | 1.11 µM | 1.31 µM | 0.0989 µM | 1.85 µM | 1.72 µM
COc1cc2c(c(OC)c1OC)-c1ccc(O)c(=O)cc1[C@@H](NC(C)=O)CC2 | > 100 µM | > 100 µM | > 100 µM and 32.8 µM | > 100 µM and 60.1 µM | 45.8 µM and 34.2 µM | 80 µM and 44 µM | 39.5 µM | > 100 µM and 36.2 µM | > 100 µM | > 100 µM | 9.82 µM |  | 8.68 µM | 5.89 µM | 4.66 µM | 10.5 µM |  | 4.6 µM | 7.48 µM | 7.14 µM
CC(C(=O)O)c1ccc(-c2ccccc2)c(F)c1 (stereo unspecified) | > 100 µM | > 100 µM | > 100 µM | > 100 µM | > 100 µM | > 100 µM | > 100 µM | > 100 µM | > 100 µM | > 100 µM |  |  |  |  |  |  |  |  |  | 
CCC[CH2][Sn]1([CH2]CCC)[O]C(=O)c2ccc(N)cc2[O]1 | 2.52 µM | 2.47 µM | 2.59 µM | 1.45 µM | 2.43 µM | 2.64 µM | 1.61 µM | 4.12 µM | 1.48 µM | 2.17 µM | 1.26 µM | 0.285 µM | 1.24 µM | 0.287 µM | 0.254 µM | 0.857 µM | 0.336 µM | 1.76 µM | 0.397 µM | 0.734 µM
COC(=O)[C@H]1[C@H]2C[C@@H]3c4[nH]c5cc(OC)ccc5c4CCN3C[C@H]2C[C@@H](OC(=O)/C=C/c2cc(OC)c(OC)c(OC)c2)[C@@H]1OC | > 100 µM | > 100 µM | 28.5 µM | 13.1 µM | > 100 µM | > 100 µM | 53 µM | 28.5 µM | 28 µM | > 100 µM | 5.88 µM | 14.1 µM | 4.44 µM | 3.31 µM | 3.33 µM | 26.7 µM | 17.6 µM | 4.55 µM | 12.6 µM | 6.46 µM
[N-]=[N+]=CC(=O)COC(=O)c1ccccc1 | > 100 µM | > 100 µM | > 100 µM | > 100 µM | > 100 µM | > 100 µM | > 100 µM | > 100 µM | > 100 µM | > 100 µM |  |  |  |  |  |  |  |  |  | 
CN1c2ccccc2S(=O)(=O)n2c(CCc3ccccc3)nnc21 | > 100 µM | > 100 µM | > 100 µM | > 100 µM | > 100 µM | > 100 µM | > 100 µM | > 100 µM | > 100 µM | > 100 µM |  |  |  |  |  |  |  |  |  | 
O=C(Nc1ccc(Br)cc1)Nc1nn(C(=O)Nc2ccc(Br)cc2)c2ccccc12 | > 100 µM | > 100 µM | > 100 µM | > 100 µM |  | > 100 µM | > 100 µM | > 100 µM | > 100 µM | 81 µM | 28.9 µM | 40.3 µM | > 88.8 µM | 64.4 µM | 2.49 µM | 27.7 µM | 29.1 µM | 55.6 µM | 96.9 µM | 23.6 µM
COc1cc2c3c(c1OC)C1(C=CC(=O)C=C1)CC3NCC2 (stereo unspecified) | > 100 µM | > 100 µM | > 100 µM | > 100 µM | > 100 µM | > 100 µM | > 100 µM | > 100 µM | > 100 µM | > 100 µM |  |  |  |  |  |  |  |  |  | 
C[C@]12CC[C@H]3[C@@H](CC[C@]4(O)C[C@@H](O)CC[C@]34CO)[C@@]1(O)CC[C@@H]2C1=CC(=O)OC1 | 2.24 µM | 3.49 µM | 17 µM | 8.19 µM | 0.726 µM | 13.8 µM | 4.98 µM | 3.8 µM | 22.5 µM | 23.6 µM |  |  |  |  |  |  |  |  |  | 
Oc1c(Cl)cc(Cl)cc1Sc1cc(Cl)cc(Cl)c1O | 20.8 µM and 15.5 µM | 14.1 µM and 9.1 µM | 10.7 µM and 10.5 µM | 11.2 µM and 10.8 µM | 11.7 µM and 13.1 µM | 15 µM and 6.76 µM | 10.8 µM and 7.76 µM | 13.1 µM and 9.29 µM | 21 µM and 14.5 µM | 32.2 µM and 14.2 µM | 5.01 µM and 4.18 µM | 3.8 µM and 2.51 µM | 3.54 µM and 2.93 µM | 2.93 µM and 3 µM | 3.8 µM and 2.55 µM | 3.1 µM and 2.26 µM | 2.56 µM and 2.34 µM | 2.92 µM and 2.74 µM | 7.01 µM and 4 µM | 4.84 µM and 3.23 µM
Nc1cc2[nH]cnc2c(=O)[nH]1 | > 300 µM | > 300 µM | > 300 µM | > 300 µM | > 300 µM | > 212 µM | > 300 µM | > 300 µM | > 300 µM | > 300 µM |  |  |  |  |  |  |  |  |  | 
C[C@]12CC[C@@H](OC(=O)N(CCCl)N=O)C[C@@H]1CC[C@@H]1[C@@H]2CC[C@]2(C)C(=O)CC[C@@H]12 | 7.54 µM | > 43.7 µM | 16.3 µM | 22.1 µM | > 57.7 µM | 31.4 µM | 67.2 µM | 30.2 µM | 29.6 µM | 26 µM | 0.671 µM | 6.5 µM | 2.81 µM | 5.6 µM |  | 14.6 µM | 15.3 µM | 4.88 µM | 14.7 µM | 0.526 µM
O=C(O)c1cccc(/C=C/c2ccccc2)c1 | > 100 µM | > 100 µM | > 100 µM | > 100 µM | > 100 µM | > 100 µM | > 100 µM | > 100 µM | > 100 µM | > 100 µM |  |  |  |  |  |  |  |  |  | 
CC[C@]1(O)C[C@@H]2CN(CCc3c([nH]c4ccccc34)[C@@](C(=O)OC)(c3cc4c(cc3OC)N(C)[C@H]3[C@@](O)(C(N)=O)[C@H](O)[C@]5(CC)[C@@H]6C[C@@H]6CN6CC[C@]43[C@@H]65)C2)C1 | 0.795 µM | > 33.3 µM | > 29.8 µM | > 33.3 µM | > 33.3 µM | > 23.7 µM | > 33.3 µM | > 9.84 µM | > 33.3 µM | > 33.3 µM | < 0.00333 µM | 0.0624 µM | < 0.00333 µM | < 0.00333 µM | < 0.00333 µM | 0.0382 µM | < 0.00333 µM | 0.745 µM | 6.47 µM | < 0.00333 µM
N=c1ccc2nc3c(cc(N)c4ccccc43)oc-2c1 | 0.692 µM | 1.09 µM | 0.845 µM | 0.378 µM | 1.05 µM | 1.63 µM | 0.523 µM | 1.09 µM | 2.54 µM | 0.795 µM | 0.265 µM | 0.174 µM | 0.236 µM | 0.103 µM | 0.287 µM | 0.386 µM | 0.179 µM | 0.223 µM | 1.19 µM | 0.242 µM
CC1(C)C(=O)C=CC2(C)C1CC(O)C1(C)C2CCC2(C)C(c3ccoc3)OC(=O)C3OC321 (stereo unspecified) | 51.4 µM | 33.2 µM | 28.7 µM | 38.9 µM | 27.2 µM | 33.3 µM | 28.6 µM | 30.5 µM | 70.3 µM | 44.3 µM |  |  |  |  |  |  |  |  |  | 
CCOC(=O)c1c2c(n(Cc3ccccc3)c1C)-c1nc(Cc3ccccc3)[nH]c1C(=O)C2=O | 2.92 µM | 3.27 µM | 3.83 µM | 3.17 µM | 5.41 µM | 4.39 µM | 3.59 µM | 5.28 µM | 3.42 µM | 3.09 µM | 1.58 µM | 1.84 µM | 1.83 µM | 1.78 µM | 2.13 µM | 1.67 µM | 1.82 µM | 2.51 µM | 2 µM | 1.72 µM
CCCCCCNC(=O)n1cc(F)c(=O)[nH]c1=O | > 100 µM | > 100 µM | > 100 µM | 16.3 µM | 44.2 µM | 23.3 µM | 49.1 µM | 92.5 µM | 27.7 µM | 56.3 µM | 5.38 µM | 21.1 µM | 4.43 µM | 2.06 µM | 7.28 µM | 10.6 µM | 6.26 µM | 12 µM | 3.96 µM | 7.48 µM
COc1cc2ncnc3c2cc1OCCCCCN(C)Cc1ccc(Br)cc1N3 | > 100 µM | > 10 µM | > 100 µM | > 100 µM | > 100 µM | > 100 µM | > 100 µM | > 100 µM | > 100 µM | > 100 µM | 0.676 µM and 0.555 µM | 0.24 µM | 13.2 µM and > 10 µM | 2.93 µM and 2.12 µM | 6.85 µM and 3.88 µM | 26.4 µM and 7.69 µM | 40.8 µM and > 10 µM | 3.34 µM and 2.04 µM | 6.68 µM and 7.54 µM | 24.6 µM and > 10 µM
